The values that follow come from US6864286B2, “Inhibitors of the EGF-receptor tyrosine kinase and methods for their use” (Parker Hughes Institute, priority 1998, dated 2005).

As usually defined, the IC50 is the concentration at which inhibition is half-maximal.

The structures appear in SMILES notation. A value given as a limit tells only on which side of the number the result lay.

T1 sequence (P00533 25-1210): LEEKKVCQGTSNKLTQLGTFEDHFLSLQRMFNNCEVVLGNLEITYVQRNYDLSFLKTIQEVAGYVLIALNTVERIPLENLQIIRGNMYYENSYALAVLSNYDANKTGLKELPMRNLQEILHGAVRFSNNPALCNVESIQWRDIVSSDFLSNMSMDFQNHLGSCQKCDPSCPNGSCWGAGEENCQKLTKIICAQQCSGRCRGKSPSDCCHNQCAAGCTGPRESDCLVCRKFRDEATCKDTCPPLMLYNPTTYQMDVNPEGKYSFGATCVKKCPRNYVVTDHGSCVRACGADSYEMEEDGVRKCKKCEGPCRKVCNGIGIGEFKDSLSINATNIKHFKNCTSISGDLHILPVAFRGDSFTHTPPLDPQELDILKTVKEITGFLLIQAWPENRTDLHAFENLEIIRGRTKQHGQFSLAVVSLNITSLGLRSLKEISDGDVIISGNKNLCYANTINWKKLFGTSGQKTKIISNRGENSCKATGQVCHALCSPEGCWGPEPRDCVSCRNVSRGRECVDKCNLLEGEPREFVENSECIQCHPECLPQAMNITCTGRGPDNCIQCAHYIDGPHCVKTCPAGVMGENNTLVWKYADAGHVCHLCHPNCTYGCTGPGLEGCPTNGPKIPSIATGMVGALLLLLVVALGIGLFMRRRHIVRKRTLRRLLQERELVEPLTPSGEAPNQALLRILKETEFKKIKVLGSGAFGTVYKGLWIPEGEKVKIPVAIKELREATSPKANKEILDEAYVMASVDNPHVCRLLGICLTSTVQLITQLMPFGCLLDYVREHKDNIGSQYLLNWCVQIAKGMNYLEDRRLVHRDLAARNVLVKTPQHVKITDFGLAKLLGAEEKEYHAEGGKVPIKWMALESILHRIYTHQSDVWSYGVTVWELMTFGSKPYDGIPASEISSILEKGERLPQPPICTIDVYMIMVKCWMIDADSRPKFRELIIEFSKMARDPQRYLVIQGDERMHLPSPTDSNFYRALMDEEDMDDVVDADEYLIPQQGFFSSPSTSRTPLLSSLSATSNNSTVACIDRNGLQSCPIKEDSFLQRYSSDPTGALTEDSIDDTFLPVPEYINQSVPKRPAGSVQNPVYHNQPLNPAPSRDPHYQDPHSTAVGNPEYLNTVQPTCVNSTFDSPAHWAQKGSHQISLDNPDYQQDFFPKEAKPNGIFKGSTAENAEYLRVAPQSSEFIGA

The first assay concerns the target T1, EGFR tyrosine kinase (Homo sapiens, UniProt P00533).
T1 construct: anti-EGFR immunoprecipitates from lysates of MDA-MB-231 human breast cancer cells; endogenous in cells; host or cells: MDA-MB-231 (ATCC HTB-26)
As to the kind of experiment: Cell-free EGFR immune complex kinase assay. The assay is classed as biochemical. The settings on record: EGFR immunoprecipitated from MDA-MB-231 lysates, 1 hour incubation, read-out: EGFR Inhibition IC50. The method, then: For EGFR immune complex kinase assays, 24-hours after treatment with leflunomide analogs, MDA-MB-231 breast cancer cells were stimulated with 20 ng/mL EGF for 5 minutes, lysed in 1% Nonidet-P-40 buffer, and cell lysates were immunoprecipitated with an anti-EGFR antibody reactive with the sequence Ala^351-Asp^364 of the human EGFR (Upstate Biotechnology Inc. [UBI] Catalog # 05-104) (Uckun, F. M., et al. Clin. Can. Res. 1998, 4, 901). EGFR immune complexes were examined for tyrosine phosphorylation by Western blot analysis, as described by Uckun, F. M., et al. Clin. Can. Res. 1998, 4, 901. All anti-phosphotyrosine Western blots were subjected to densitometric scanning using the automated AMBIS system (Automated Microbiology System, Inc., San Diego, Calif.) and for each time point a % inhibition value was determined by comparing the density ratios of the tyrosine phosphorylated EGFR protein bands to those of the baseline sample and using the formula: % Inhibition=100−100×[Density of tyrosine phosphorylated EGFR band]test sample/[Density of tyrosine phosphorylated EGFR band]baseline control sample. The IC50 values were determined using an Inplot program (Graphpad Software, Inc., San Diego, Calif.).
In other experiments, MDA-MB-231 cells were stimulated with 10 ng/ml EGF prior to immunoprecipitation of the EGFR. EGFR immune complexes were incubated for 1 hour at room temperature with various LFM analogs and tyrosine kinase assays were performed in the presence of [γ-^32P]-ATP, as previously described (Uckun, F. M., et al. Clin. Can. Res. 1998, 4, 901; Narla, R. K., et al. Clin. Can. Res 1998, 1405; Uckun, F. M., et al. Science 1996, 22, 1096; Uckun, F. M., et al. Science 1995, 267, 886). The kinase assay gels were analyzed both by autoradiography and using the BioRad Storage Phosphor Imager System (BioRad, Hercules, Calif.) for quantitative scanning.
For the molecule `CC(O)=C(C#N)C(=O)Nc1ccccc1C(F)(F)F` [LFM-A4, α-Cyano-β-hydroxy-β-methyl-N-[2-(trifluoromethyl)phenyl]-propenamide], the IC50 was above 100 µM.

As to `CC(O)=C(C#N)C(=O)Nc1cccc(C(F)(F)F)c1` [LFM-A8, α-Cyano-β-hydroxy-β-methyl-N-[3-(trifluoromethyl)phenyl]-propenamide], the IC50 is above 100 µM.

For the molecule `CC(O)=C(C#N)C(=O)Nc1ccc(Br)cc1` [LFM-A1, α-Cyano-β-hydroxy-β-methyl-N-(4-bromophenyl)propenamide], the IC50 is above 100 µM.

For the molecule `CC(O)=C(C#N)C(=O)Nc1cccc(Cl)c1` [LFM-A10, α-Cyano-β-hydroxy-β-methyl-N-(3-chlorophenyl)propenamide], the IC50 is above 100 µM.

For the molecule `CC(O)=C(C#N)C(=O)Nc1ccc(F)cc1` [LFM-A3, α-Cyano-β-hydroxy-β-methyl-N-(4-fluorophenyl)propenamide], the IC50 is above 100 µM.

Regarding `CC(O)=C(C#N)C(=O)Nc1ccccc1` [LFM-A14, α-Cyano-β-hydroxy-β-methyl-N-(phenyl)propenamide], the half-inhibitory concentration (IC50) is above 100 µM.

For `CC(O)=C(C#N)C(=O)Nc1ccccc1F` [LFM-A7, α-Cyano-β-hydroxy-β-methyl-N-(2-fluorophenyl)propenamide], the IC50 was 74.5 µM.

Take `CC(O)=C(C#N)C(=O)Nc1ccccc1Cl` [LFM-A6, α-Cyano-β-hydroxy-β-methyl-N-(2-chlorophenyl)propenamide]: the concentration for half-maximal inhibition (IC50) is above 100 µM.

With `CC(O)=C(C#N)C(=O)Nc1cc(Br)ccc1Br` [LFM-A13, α-Cyano-β-hydroxy-β-methyl-N-(2,5-dibromophenyl)propenamide], the IC50 is above 100 µM.

Regarding `CC(O)=C(C#N)C(=O)Nc1cccc(F)c1` [LFM-A11, α-Cyano-β-hydroxy-β-methyl-N-(3-fluorophenyl)propenamide], the concentration for half-maximal inhibition (IC50) is above 100 µM.

Regarding `CC(O)=C(C#N)C(=O)Nc1ccc(Cl)cc1` [LFM-A2, α-Cyano-β-hydroxy-β-methyl-N-(4-chlorophenyl)propenamide], the IC50 is above 100 µM.

`CC(O)=C(C#N)C(=O)Nc1cccc(Br)c1` [LFM-A9, α-Cyano-β-hydroxy-β-methyl-N-(3-bromophenyl)propenamide]: the half-maximal inhibitory concentration (IC50) was above 100 µM.

For the molecule `CC(O)=C(C#N)C(=O)Nc1ccccc1Br` [LFM-A5, α-Cyano-β-hydroxy-β-methyl-N-(2-bromophenyl)propenamide], the IC50 is above 100 µM.

A further assay deals with MDA-MB-361 cells. As to the kind of experiment: MTT cytotoxicity assay, MDA-MB-361. The assay is classed as cell-based. The note with it: Homo sapiens, 36 hours, read-out: Cancer Cell Cytotoxicity IC50 MDA-MB-361. The method, then:
(§1) In order to determine the cytotoxic activity of LFM and its analogs against breast cancer cells, cells in alpha-MEM supplemented with 10% (v/v) fetal calf serum were treated with various concentrations of the compounds for 24 hours at 37° C., washed twice in alpha-MEM, and then used in either MTT assays or in vitro invasion assays, as described hereinafter.
(§2) The cytotoxicity of various compounds against human breast cancer cell lines was analyzed using the MTT (3-[4,5-dimethylthiazol-2-yl]-2,5-diphenyl tetrazolium bromide) assay (Boehringer Mannheim Corp., Indianapolis, Ind.). Uckun F. M., et al. Clin. Cancer Res. 1998, 4, 901-912. Exponentially growing breast cancer cells were seeded into a 96-well plate at a density of 2.5×10^4 cells/well and incubated for 36 hours at 37° C. prior to drug exposure. On the day of treatment, culture medium was carefully aspirated from the wells and replaced with fresh medium containing the LFM analogs at concentrations ranging from 2 to 250 μM. Triplicate wells were used for each treatment. The cells were incubated with the various compounds for 36 hours at 37° C. in a humidified 5% CO2 atmosphere. To each well, 10 μl of MTT (0.5 mg/ml final concentration) was added and the plates were incubated at 37° C. for 4 hours to allow MTT to form formazan crystals by reacting with metabolically active cells. The formazan crystals were solubilized overnight at 37° C. in a solution containing 10% SDS in 0.01 M HCl. The absorbence of each well was measured in a microplate reader (Labsystems) at 540 nm and a reference wavelength of 690 nm.
(§3) To translate the absorbance A540 values into the number of live cells in each well, the A540 values were compared to those on standard A540-versus-cell number curves generated for each cell line. The percent survival was calculated using the formula: % survival=Live cell number[test]/Live cell number [control]×100. The IC50 values were calculated by non-linear regression analysis using an Graphpad Prism software version 2.0 (Graphpad Software, Inc., San Diego, Calif.).
For orientation: Formazan colour is commonly taken as a measure of viable cells.
Take `CC(O)=C(C#N)C(=O)Nc1ccccc1C(F)(F)F` [LFM-A4, α-Cyano-β-hydroxy-β-methyl-N-[2-(trifluoromethyl)phenyl]-propenamide]: the IC50 was above 300 µM.

As to `CC(O)=C(C#N)C(=O)Nc1cccc(C(F)(F)F)c1` [LFM-A8, α-Cyano-β-hydroxy-β-methyl-N-[3-(trifluoromethyl)phenyl]-propenamide], the IC50 is above 300 µM.

As for `CC(O)=C(C#N)C(=O)Nc1ccc(Br)cc1` [LFM-A1, α-Cyano-β-hydroxy-β-methyl-N-(4-bromophenyl)propenamide], the half-maximal inhibitory concentration (IC50) was above 300 µM.

In the case of `CC(O)=C(C#N)C(=O)Nc1cccc(Cl)c1` [LFM-A10, α-Cyano-β-hydroxy-β-methyl-N-(3-chlorophenyl)propenamide], the IC50 was above 300 µM.

For `CC(O)=C(C#N)C(=O)Nc1ccc(F)cc1` [LFM-A3, α-Cyano-β-hydroxy-β-methyl-N-(4-fluorophenyl)propenamide], the IC50 was above 300 µM.

Regarding `CC(O)=C(C#N)C(=O)Nc1ccccc1` [LFM-A14, α-Cyano-β-hydroxy-β-methyl-N-(phenyl)propenamide], the IC50 is above 300 µM.

As to `CC(O)=C(C#N)C(=O)Nc1ccccc1F` [LFM-A7, α-Cyano-β-hydroxy-β-methyl-N-(2-fluorophenyl)propenamide], the half-maximal inhibitory concentration (IC50) was above 300 µM.

With `CC(O)=C(C#N)C(=O)Nc1ccccc1Cl` [LFM-A6, α-Cyano-β-hydroxy-β-methyl-N-(2-chlorophenyl)propenamide], the IC50 was above 300 µM.

Regarding `CC(O)=C(C#N)C(=O)Nc1cc(Br)ccc1Br` [LFM-A13, α-Cyano-β-hydroxy-β-methyl-N-(2,5-dibromophenyl)propenamide], the IC50 is above 300 µM.

As for `CC(O)=C(C#N)C(=O)Nc1cccc(F)c1` [LFM-A11, α-Cyano-β-hydroxy-β-methyl-N-(3-fluorophenyl)propenamide], the IC50 was above 300 µM.

For `CC(O)=C(C#N)C(=O)Nc1ccc(Cl)cc1` [LFM-A2, α-Cyano-β-hydroxy-β-methyl-N-(4-chlorophenyl)propenamide], the IC50 is above 300 µM.

In the case of `CC(O)=C(C#N)C(=O)Nc1cccc(Br)c1` [LFM-A9, α-Cyano-β-hydroxy-β-methyl-N-(3-bromophenyl)propenamide], the IC50 was above 300 µM.

Take `CC(O)=C(C#N)C(=O)Nc1ccccc1Br` [LFM-A5, α-Cyano-β-hydroxy-β-methyl-N-(2-bromophenyl)propenamide]: the IC50 was above 300 µM.

The next assay relates to MDA-MB-231 cells. As to the kind of experiment: Confocal laser scanning microscopy of treated cells. It is filed as cell-based, human. The note with it: MDA-MB-231, 100 μM, 24 hours, α-tubulin / TOTO-3 staining. The method, then:
Immunofluorescence was used to examine the morphologic features of breast cancer cells treated with LFM and its analogs. Before the experiment, cells were trypsinized from rapidly growing tissue culture flasks and seeded onto sterile 22 mm^2 coverslips in 6-well culture plates. Cells on coverslips were returned to the incubator for 24 hours prior to treatment. The following day, drugs were added from a stock solution made in DMSO to a final concentration of 100 μM. Final DMSO concentration was 0.1% in both test samples and controls. Cells were returned to a 37° C. incubator for 24 hours before further processing.
At 24 hours, coverslips were fixed in −20° C. methanol for 15 minutes followed by a 15 minute incubation in phosphate buffered saline +0.1% Triton X-100(PBS-Tx). Coverslips were next incubated with a monoclonal antibody against α-tubulin (Sigma Chemical Co, St. Louis, Mo.) at a dilution of 1:1000 for 40 minutes in a humidified chamber at 37° C. Coverslips were washed for 15 minutes in PBS-Tx followed by a 40 min incubation with a goat anti-mouse IgG antibody conjugated to FITC (Amersham Corp., Arlington Heights, Ill.). The coverslips were again rinsed in PBS-Tx and incubated with 5 μM TOTO-3 (Molecular Probes, Eugene Oreg.) for 20 minutes to label the nuclear DNA. […]
`CC(O)=C(C#N)C(=O)Nc1ccc(F)cc1` [LFM-A3, α-Cyano-β-hydroxy-β-methyl-N-(4-fluorophenyl)propenamide]: the “morphology and microtubular organization of treated cells” value is “did not affect the morphology or microtubular organization”.

The test system of another assay is MDA-MB-231 cells. The assay is described as follows: MTT cytotoxicity assay, MDA-MB-231. It is filed as cell-based. The settings on record: Homo sapiens, 36 hours, read-out: Cancer Cell Cytotoxicity IC50 MDA-MB-231. Here is the method: as §1, §2, §3
Consider `CC(O)=C(C#N)C(=O)Nc1ccccc1C(F)(F)F` [LFM-A4, α-Cyano-β-hydroxy-β-methyl-N-[2-(trifluoromethyl)phenyl]-propenamide], for which the IC50 was above 300 µM.

Take `CC(O)=C(C#N)C(=O)Nc1cccc(C(F)(F)F)c1` [LFM-A8, α-Cyano-β-hydroxy-β-methyl-N-[3-(trifluoromethyl)phenyl]-propenamide]: the IC50 is above 300 µM.

With `CC(O)=C(C#N)C(=O)Nc1ccc(Br)cc1` [LFM-A1, α-Cyano-β-hydroxy-β-methyl-N-(4-bromophenyl)propenamide], the IC50 is above 300 µM.

As for `CC(O)=C(C#N)C(=O)Nc1cccc(Cl)c1` [LFM-A10, α-Cyano-β-hydroxy-β-methyl-N-(3-chlorophenyl)propenamide], the IC50 is above 300 µM.

In the case of `CC(O)=C(C#N)C(=O)Nc1ccc(F)cc1` [LFM-A3, α-Cyano-β-hydroxy-β-methyl-N-(4-fluorophenyl)propenamide], the half-maximal inhibitory concentration (IC50) is above 300 µM.

With `CC(O)=C(C#N)C(=O)Nc1ccccc1` [LFM-A14, α-Cyano-β-hydroxy-β-methyl-N-(phenyl)propenamide], the IC50 was above 300 µM.

Turning to `CC(O)=C(C#N)C(=O)Nc1ccccc1F` [LFM-A7, α-Cyano-β-hydroxy-β-methyl-N-(2-fluorophenyl)propenamide], the half-maximal inhibitory concentration (IC50) is above 300 µM.

As for `CC(O)=C(C#N)C(=O)Nc1ccccc1Cl` [LFM-A6, α-Cyano-β-hydroxy-β-methyl-N-(2-chlorophenyl)propenamide], the half-maximal inhibitory concentration (IC50) was above 300 µM.

Turning to `CC(O)=C(C#N)C(=O)Nc1cc(Br)ccc1Br` [LFM-A13, α-Cyano-β-hydroxy-β-methyl-N-(2,5-dibromophenyl)propenamide], the half-inhibitory concentration (IC50) was above 300 µM.

Regarding `CC(O)=C(C#N)C(=O)Nc1cccc(F)c1` [LFM-A11, α-Cyano-β-hydroxy-β-methyl-N-(3-fluorophenyl)propenamide], the IC50 was above 300 µM.

On to `CC(O)=C(C#N)C(=O)Nc1ccc(Cl)cc1` [LFM-A2, α-Cyano-β-hydroxy-β-methyl-N-(4-chlorophenyl)propenamide], for which the half-maximal inhibitory concentration (IC50) was above 300 µM.

In the case of `CC(O)=C(C#N)C(=O)Nc1cccc(Br)c1` [LFM-A9, α-Cyano-β-hydroxy-β-methyl-N-(3-bromophenyl)propenamide], the 50% inhibitory concentration (IC50) was above 300 µM.

Regarding `CC(O)=C(C#N)C(=O)Nc1ccccc1Br` [LFM-A5, α-Cyano-β-hydroxy-β-methyl-N-(2-bromophenyl)propenamide], the IC50 was above 300 µM.
